Read-outs that look alike come from different tables or passages of the source.
Tests used:
[1] = Plasma pharmacokinetics of CC-223 and metabolite M1 in patients with NET; type: in vivo, human; details: for CL/F / AUC / AUC(0-t) / Cmax / Vd/F: geometric mean (%CV, n); for Tmax / AUC / AUC(0-t) / Cmax / Vd/F: human, plasma; for Vd/F: read-out: Vz/F
Description: Blood for PK analysis was drawn on day 1 pre-dose and for up to 48 hours post-dose, and then on day 15 up to 8 hours post-dose. Urine on day 1 was collected within 30 minutes prior to dosing and at intervals up to 24 hours post-dose. Samples were assayed for CC-223 and the principal active metabolite (M1) using validated chiral liquid chromatography mass spectrometry. CC-223 PK parameters were calculated using dosing and sample collection times. Non-compartmental PK analysis was performed used WinNonlin Enterprise version 5.2 Model 200 and Model 210 (Certara, Princeton, NJ).

[2] = tested on: well-differentiated NET of non-pancreatic gastrointestinal or unknown origin; assay: FDG PET SUV change from baseline to day 15 of cycle 1; type: in vivo, human
Description: (§1) Metabolic changes were assessed by percent change in total of standardized uptake value (SUV) of 2-^18F-fluoro-2-deoxyglucose (FDG) with PET scanning from baseline to day 15 in cycle 1. Carcinoid symptoms of flushing and diarrhea were documented monthly with a non-validated symptom questionnaire that was completed at each study visit. Patients reported whether they had experienced specific events, and the severity and/or frequency of these events. Symptom improvement was defined as ≥50% reduction in frequency and/or a 1-grade reduction in severity for each from baseline.

[3] = tested on: carcinoid symptoms of flushing and diarrhea; assay: Carcinoid symptom questionnaire (flushing, diarrhea); type: in vivo, human
Description: as §1

[4] = 28-day GLP toxicology study, rat; type: in vivo
Description: A dose of 7.5 mg/day is proposed as the starting dose in this protocol. This dose is based on the recommendations in the March 2010 FDA Guidance for Industry entitled, “S9 Nonclinical Evaluation for Anticancer Pharmaceuticals,” where a start dose for first administration in humans should be either one-tenth the STD10 in rodents, or one-sixth of the HNSTD if the nonrodent is the most appropriate species. The conversion factors from the July 2005 FDA Guidance for Industry entitled, “Estimating the Maximum Safe Starting Dose in Initial Clinical Trials for Therapeutics in Adult Healthy Volunteers,” were used to convert the animal dose to the HED. The dose was converted to milligrams based on a 60-kg human body weight.
Species Animal Dose HED (mg/kg) HED (mg) Safety Factor Start Dose (mg) […]
Since the dog was identified as the most sensitive species in the 28-day GLP toxicology studies, the start dose for the study would be 8.2 mg/day. Based on available dosage strengths of the IP, a dose of 7.5 mg/day of CC-223 is deemed to be an acceptable starting dose for this initial trial in […]
Part B will consist of approximately 230 patients with selected tumor types to further assess the safety profile and provide preliminary efficacy information. […]

[5] = parameters: method as in PMID 26177599; details: patients with advanced solid tumors; oral once daily; cited from earlier work
[6] = tested on: human carcinoid xenografts that secrete serotonin; parameters: method as in PMID 28864682; details: mice bearing human carcinoid xenografts; cited from earlier work
[7] = parameters: method as in doi:10.1200/jco.2013.31.15_suppl.2606; details: non-small cell lung cancer and hepatocellular carcinoma cohorts dosed at 45 mg; cited from earlier work
[8] = po, 30 mg/day, CC-223 30 mg/day oral, Day 1
[9] = po, 30 mg/day, CC-223 30 mg/day oral, Day 15, n = 1
[10] = po, 45 mg/day, CC-223 45 mg/day oral, Day 1

With CO[C@H]1CC[C@H](N2C(=O)CNc3ncc(-c4ccc(C(C)(C)O)nc4)nc32)CC1 [CC-223] the CL/F ([1]; CC-223 30 mg/day oral, Day 1) was 34.0 (34.2, n = 3) L/h, the CL/F ([1]; CC-223 45 mg/day oral, Day 1) was 19.8 (20.1, n = 2) L/h and the Tmax ([1]; oral, regardless of starting dose, read-out: Median Tmax) was 1.5 to 3 h. The AUC [1, 8] was 819 ng·h/mL, the AUC(0-t) [1, 8] was 840 ng·h/mL and the Cmax [1, 8] was 133 ng/mL. For the same compound, the AUC [1, 9] was 776 ng·h/mL, the AUC(0-t) [1, 9] was 776 ng·h/mL and the Cmax [1, 9] was 154 ng/mL. The Tmax ([1]; po, 30 mg/day, median (min, max, n), CC-223 30 mg/day oral, Day 1, read-out: Tmax) was 1.7 h, the Tmax ([1]; po, 30 mg/day, median (min, max, n), CC-223 30 mg/day oral, Day 15, read-out: Tmax) was 1.5 h and the AUC(0-t) [1, 10] was 1800 ng·h/mL. For the same compound, the Cmax [1, 10] was 347 ng/mL, the AUC ([1]; po, 45 mg/day, CC-223 45 mg/day oral, Day 1, n = 1) was 1940 ng·h/mL and the Tmax ([1]; po, 45 mg/day, median (min, max, n), CC-223 45 mg/day oral, Day 1, read-out: Tmax) was 1.52 h. For the same compound, the Vd/F ([1]; CC-223 30 mg/day oral, Day 1) was 290 L, the Vd/F ([1]; CC-223 45 mg/day oral, Day 1) was 125 L and the “Patients with at least a 25% reduction in SUV” value ([2]; 18 patients) was 38.3%. The “Patients with at least a 15% reduction in FDG uptake” value ([2]; 21 patients) was 44.7%, the “Mean percent decrease from baseline to day 15 in [18F]-FDG PET SUV” value ([2]; 31 patients, standard deviation 35.2%, P<0.0001) was 32.0% and the “Symptom reduction at any time during the study: both flushing and diarrhea” value ([3]; 5 of 13 affected patients) was 39%. The “Symptom reduction at any time during the study: flushing” value ([3]; 8 of 16 affected patients) was 50%, the “Symptom reduction at any time during the study: diarrhea” value ([3]; 9 of 22 affected patients) was 41% and the “HED (human equivalent dose) of STD10” value ([4]; 60-kg human body weight) was 96 mg. For the same compound, the “HED (human equivalent dose) of STD10” value ([4]; FDA conversion factors) was 1.6 mg/kg, the “Maximum tolerated dose (MTD)” value [5] was 45 mg/day and the “Volume of tumors that progressed on rapamycin, after treatment” value [6] was “remained stable or decreased in volume from baseline”. For the same compound, the “Patients with dose reductions” value [7] was over 50%.
